According to PubChem BioAssay (NCI):
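Test compounds were applied to cells in 96-well plates for 48 hours at 5 doses. TGI denotes the concentration required for complete inhibition of growth.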

What was measured:
Experiment in all cases: NCI anticancer screen, dose series, 48 h
HL-60(TB) leukemia = system: HL-60(TB) leukemia
A498 renal = system: A498 renal
NCI-H23 lung = system: NCI-H23 lung
SR leukemia = system: SR leukemia
786-0 renal = system: 786-0 renal
EKVX NSCLC = system: EKVX NSCLC
HOP-62 NSCLC = system: HOP-62 NSCLC
KM12 colon = system: KM12 colon
DU-145 prostate = system: DU-145 prostate
RPMI-8226 leukemia = system: RPMI-8226 leukemia
UO-31 renal = system: UO-31 renal
MDA-MB-435 = system: MDA-MB-435
U251 CNS = system: U251 CNS
HT29 colon = system: HT29 colon
ACHN renal = system: ACHN renal
SF-539 CNS = system: SF-539 CNS
CAKI-1 renal = system: CAKI-1 renal
SF-295 CNS = system: SF-295 CNS
PC-3 prostate = system: PC-3 prostate
HCC-2998 colon = system: HCC-2998 colon

SMILES | TGI (HL-60(TB) leukemia) | TGI (A498 renal) | TGI (NCI-H23 lung) | TGI (SR leukemia) | TGI (786-0 renal) | TGI (EKVX NSCLC) | TGI (HOP-62 NSCLC) | TGI (KM12 colon) | TGI (DU-145 prostate) | TGI (RPMI-8226 leukemia) | TGI (UO-31 renal) | TGI (MDA-MB-435) | TGI (U251 CNS) | TGI (HT29 colon) | TGI (ACHN renal) | TGI (SF-539 CNS) | TGI (CAKI-1 renal) | TGI (SF-295 CNS) | TGI (PC-3 prostate) | TGI (HCC-2998 colon)
O=C1CSSCC(=O)Nc2ccccc2N1 | > 100 µM | > 100 µM | > 100 µM | > 100 µM | > 100 µM | > 100 µM | > 100 µM | > 100 µM | > 100 µM | > 100 µM | > 100 µM | > 100 µM | > 100 µM | > 100 µM | > 100 µM | > 100 µM | > 100 µM | > 100 µM | > 100 µM | –
Cc1nc(-c2cc3c(ccc4ccccc43)oc2=O)cs1 | > 100 µM | – | – | > 100 µM | > 100 µM | > 100 µM | > 100 µM | > 100 µM | > 100 µM | > 100 µM | > 100 µM | > 100 µM | > 100 µM | > 100 µM | > 100 µM | > 100 µM | > 100 µM | > 100 µM | > 100 µM | > 100 µM
CN(CCC(=O)O)C1=Nc2ccc(Cl)cc2C(c2ccccc2)=[N+]([O-])C1 | > 100 µM | > 100 µM | > 100 µM | > 100 µM | > 100 µM | > 100 µM | > 100 µM | > 100 µM | > 100 µM | > 100 µM | > 100 µM | > 100 µM | > 100 µM | > 100 µM | > 100 µM | > 100 µM | > 100 µM | > 100 µM | > 100 µM | –
CC(CCC(=O)O)(c1ccc(O)cc1)c1ccc(O)cc1 | – | > 100 µM | > 100 µM | > 100 µM | > 100 µM | > 100 µM | > 100 µM | > 100 µM | > 100 µM | – | > 100 µM | > 100 µM | > 100 µM | > 100 µM | > 100 µM | – | > 100 µM | > 100 µM | > 100 µM | –
CCC(C)(C)C1CCC2c3c([nH]c4ccccc34)C3C(=O)N(c4ccc(OC)cc4)C(=O)C3C2C1 (centres undefined) | – | – | 35.1 µM | 75.3 µM | 25.9 µM | > 100 µM | 23.2 µM | 12.2 µM | 28.9 µM | – | > 100 µM | 43.5 µM | 54.8 µM | 24.9 µM | 58.6 µM | 33.5 µM | 22.7 µM | 64.2 µM | 26.6 µM | 40.5 µM
CC(C)(C)/C(=N\Nc1nc2ccccc2[nH]1)c1ccccn1 | – | > 100 µM | > 100 µM | > 100 µM | > 100 µM | – | > 100 µM | > 100 µM | > 100 µM | 35.4 µM | > 100 µM | > 100 µM | > 100 µM | > 100 µM | > 100 µM | > 100 µM | > 100 µM | – | > 100 µM | –
COc1ccc2c(c1)-c1nc(=S)n(CCCN(C)C)c3ccc([N+](=O)[O-])c(c13)N2 | 1.64 µM | 22.2 µM | 4.31 µM | – | 1.36 µM | 14.5 µM | 2.46 µM | 6.31 µM | 17.9 µM | 4.31 µM | 1.82 µM | 16.7 µM | 17.7 µM | 1.95 µM | 14.4 µM | 6.08 µM | 19.8 µM | 21.2 µM | 17.4 µM | 18.6 µM
